Laboratory results reported in patent publication US20230355553A1, “COMPOSITIONS AND METHODS FOR TREATING AND/OR PREVENTING OCULAR DISORDERS” (University of Virginia Patent Foundation, priority 2020, published 2023).

Legend:
[1] = system: Alu RNA-induced RPE degeneration; test: Alu RNA-induced RPE degeneration in mice, racemic fluoxetine vs enantiomers (fundus photos); format: in vivo, mouse; settings: subretinal Alu RNA 180 ng, 172 ng drug intravitreous, 7 days
Description: In vitro transcribed Alu RNA (SEQ ID NO: 1; 180 ng) was injected into the subretinal space of mice and 172 ng racemic fluoxetine (TCI Chemicals, Portland, Oregon, United States of America) or enantiomers of fluoxetine (Santa Cruz Biotechnology, Inc., Dallas, Texas, United States of America) was injected into the vitreous humor. Fundus photos were captured 7 days later. […] Arrowheads show the extent and intensity of degeneration of the retinal pigmented epithelium (RPE).

secreted IL-1β = test: ELISA of secreted cytokine from mouse bone marrow derived macrophages; format: cell-based; settings: mouse BMDMs, B2 RNA (FIG. 3B), Fluoxetine 10 µM, P = 0.01
[2] = system: Alu RNA-induced RPE degeneration; test: Alu RNA-induced RPE degeneration in mice (ZO-1-stained RPE flat mounts); format: in vivo, mouse; settings: subretinal Alu RNA 300 ng, drug 1 mM in 0.5 µl intravitreous 24 hours before and immediately after, 7 days
Description: Animals. Animal experiments were approved by the University of Virginia (UVA) Institutional Animal Care and Use Committee. C57BL/6J mice (The Jackson Laboratory) were anesthetized with ketamine hydrochloride and xylazine.
The ability of various antidepressant drugs to inhibit Alu RNA (SEQ ID NO: 1) induced RPE degeneration was tested in mice. In vitro transcribed Alu RNA (SEQ ID NO: 1; 300 ng in 1 µl) or vehicle control (PBS) were injected subretinally into mice. Fluoxetine (FLX), Citalopram (CIT), Paroxetine (PAR), Sertraline (SER), Escitalopram (ESC), Venlafaxine (VEN), Imipramine (IMI), Amitriptyline (AMI), Agomelatine (AGO; all from Cayman Chemical Company, Ann Arbor, Michigan, United States of America; 1 mM in 0.5 µl), or PBS was injected into the vitreous humor 24 hours before and immediately after Alu RNA (SEQ ID NO: 1) injections. Animals were euthanized 7 days after Alu RNA (SEQ ID NO: 1) injection, and the eyes were enucleated.
RPE health was assessed by immunofluorescence staining of zonula occludens-1 (ZO-1) on RPE flat mounts. Flat mounts were fixed with 2% paraformaldehyde, stained with rabbit polyclonal antibodies against mouse ZO-1 (Invitrogen; 1:100), and visualized with Alexa-594 (Invitrogen), and imaged using an A1R Nikon confocal microscope. Images were graded as healthy or degenerated in masked fashion. […]

cataract formation = test: Cataract formation after administration of fluoxetine preparations to the eye; format: in vivo
[3] = system: amyloid beta-induced RPE degeneration; test: Oligomerized amyloid beta-induced RPE degeneration in mice (fundus photos); format: in vivo, mouse; settings: subretinal oligomerized amyloid beta, fluoxetine 172 ng intravitreous, 7 days
Description: The ability of fluoxetine to inhibit RPE degeneration induced by oligomerized amyloid beta was also tested. Oligomerized amyloid beta (0.6 micromoles; AnaSpec Inc., Fremont, California, United States of America) was injected into the subretinal space and fluoxetine (172 ng; TCI Chemicals) was injected into the vitreous humor. Fundus photos were captured 7 days later.

secreted IL-18 = test: ELISA of secreted cytokine from human ARPE-19 cells; format: cell-based; settings: Alu RNA (FIG. 4A), Fluoxetine 10 µM, P < 0.005
caspase-1 activation [4] = test: Western blot of Alu RNA-induced caspase-1 activation in mouse BMDMs; format: cell-based; settings: Alu RNA-transfected mouse BMDMs, Fluoxetine 10 µM, n = 3 per group
Description: (§1) Cell culture. The human retinal pigment epithelial cell line ARPE-19 (ATCC) was maintained in Dulbecco’s Modified Eagle Medium (DMEM) supplemented with 10% fetal bovine serum (FBS) and standard antibiotics. Mouse bone marrow derived macrophages (BMDMs) were cultured in Iscove’s modified Dulbecco’s media (IMDM) with 10% FBS and 20% L929 supernatants. All cells were maintained at 37° C. in a 5% CO2 environment.
(§2) In order to test for the ability of fluoxetine to inhibit inflammasome activation, cells were transfected with (SEQ ID NO: 1) RNA or mock-transfected for 12 hour and pre-treated with Fluoxetine (10 µM) for 1 hour and again after Alu RNA (SEQ ID NO: 1) transfection. Supernatants were collected and were briefly spun down to remove floating cells. Proteins from the cell-free supernatant were precipitated by adding sodium deoxycholate (0.15% final) followed by adding TCA (7.2% final) and incubating on ice overnight. Samples were spun down at 13000 × g for 30 minutes and pellets were washed 2 times with ice-cold acetone. Precipitated proteins solubilized in 4X LDS Buffer with 2-mercaptoethanol were resolved by SDS-PAGE on NOVEX® brand Tris-Glycine Gels (Invitrogen Corporation, Carlsbad, California, United States of America) and transferred onto Immobilon-FL PVDF membranes (MilliporeSigma, Burlington, Massachusetts, United States of America). […]

caspase-1 activation [5] = test: Western blot of Alu RNA-induced caspase-1 activation in human ARPE19 cells; format: cell-based; settings: Alu RNA-transfected human ARPE19 cells, Fluoxetine 10 µM, n = 3 per group
Description: as §1, §2

dry macular degeneration = test: Health insurance claims analysis (PearlDiver database) of dry macular degeneration among patients with depression; format: in vivo, human
Text: Data on patients with commercial health insurance was obtained from the PearlDiver Patient Records Database (Colorado Springs, Colorado, United States of America), which captures health care claims and medication usage for persons in the Humana network from 2007 to 2017. These de-identified data are Health Insurance Portability and Accountability Act-compliant and were deemed by the University of Virginia Institutional Review Board (IRB; University of Virginia, Charlottesville, United States of America) as exempt from IRB approval requirements.
Patients were included in the analysis if they had continuous enrollment in the plan for at least 1 year and had at least 2 medical claims of Depression and were at least 50 years of age at baseline. Individuals with pre-existing Dry Macular Degeneration (1 or more medical claims prior to diagnosis of Depression) were excluded. Disease claims were identified by International Classification of Diseases (ICD)-9-CM and ICD-10-CM codes.
Individuals were classified as receiving Fluoxetine if they filled one or more outpatient pharmacy prescriptions for generic or brand versions, either in sole form or as a combination medication, as identified by National Drug Codes of the Food and Drug Administration (FDA) of the United States.
Time to initial diagnosis of Dry Macular Degeneration, which was confirmed by 2 or more medical claims, was the dependent variable for this analysis.
To analyze the risk of Dry Macular Degeneration between those exposed to Fluoxetine and those not exposed to Fluoxetine, an adjusted Cox proportional hazards model was fit. The adjusted model included as covariates age, gender, race, smoking, and body mass index.
The event rates of dry macular degeneration in the general population and in the depression cohort are shown. Fluoxetine use was associated with a crude risk reduction of 28%. P < 0.0001 by χ2 test. Fluoxetine use was associated with a reduction in the hazard of developing dry macular degeneration. P < 0.0001 by likelihood ratio test.

ASC specks = test: ASC speck assay in BMDMs; format: cell-based, mouse; settings: Alu RNA-transfected BMDMs; Fluoxetine 10 µM pretreatment 2 hours; n = 5; P = 0.006
Description: The ASC speck assay was employed as a measure of inflammasome activation. BMDMs seeded on chambered coverslips (30,000 cells/well) for 12 hours were pretreated with Fluoxetine (10 µM) or 0.1% DMSO (control) for 2 hours. Cells were transfected with Alu RNA (SEQ ID NO: 1) using LIPOFECTAMINE™ 3000 brand transfection reagent (Thermo Fisher Scientific, Waltham, Massachusetts, United States of America) for 12 hours. Coverslips were fixed with 2% paraformaldehyde (15 minutes at room temperature), washed with PBS, permeabilized, blocked with blocking buffer (PBS, 0.1% TX-100, 5% normal goat serum; 1 hour at 4° C.) and incubated with anti-ASC antibody (Adipogen; 1:300) with blocking buffer. Nuclei were stained with DAPI. Slides mounted using FLUOROMOUNT-G® brand mounting medium (SouthernBiotech, Birmingham, Alabama, United States of America) were imaged by confocal microscopy (Nikon A1R). The numbers of specks per 40x field were compared by two-tailed Student’s t test.

| SMILES | RPE degeneration extent and intensity (fundus photos) [1] | secreted IL-1β (FIG. 3B) (secreted IL-1β) | RPE degeneration (percentage of eyes with RPE degeneration) [2] | cataract formation, share of subjects (cataract formation) | RPE degeneration extent and intensity (fundus photos) [3] | secreted IL-18 (FIG. 4A) (secreted IL-18) | caspase-1 activation (cleavage of pro-caspase-1 into active caspase-1) (caspase-1 activation [4]) | caspase-1 activation (cleavage of pro-caspase-1 into active caspase-1) (caspase-1 activation [5]) | Hazard Ratio (95% Confidence Interval) of developing dry macular degeneration (dry macular degeneration; Fluoxetine Use Yes vs. No, multivariate Cox regression corrected for age, gender, race, smoking, body mass index) | crude risk reduction of dry macular degeneration (dry macular degeneration; Fluoxetine use vs no use, P < 0.0001 by χ2 test) | rate of developing dry macular degeneration (Kaplan-Meier) (dry macular degeneration; Fluoxetine use, log rank test P < 0.0001 (FIG. 7)) | Event Rate of dry macular degeneration (dry macular degeneration; Fluoxetine users (Ever), depression cohort) | Dry Macular Degeneration (#) (dry macular degeneration; Fluoxetine users (Ever), depression cohort, age at least 50, 84,603 total patients) | ASC speck formation (number of specks per 40x field) (ASC specks) |
| --- | --- | --- | --- | --- | --- | --- | --- | --- | --- | --- | --- | --- | --- | --- |
| CNCC[C@@H](Oc1ccc(C(F)(F)F)cc1)c1ccccc1 [R-fluoxetine] | more complete protection | – | – | – | – | – | – | – | – | – | – | – | – | – |
| CNCC[C@H](Oc1ccc(C(F)(F)F)cc1)c1ccccc1 [S-fluoxetine] | more complete protection | – | – | – | – | – | – | – | – | – | – | – | – | – |
| CNCCC(Oc1ccc(C(F)(F)F)cc1)c1ccccc1 (racemic) [Fluoxetine, N-methyl-3-phenyl-3-[4-(trifluoromethyl)phenoxy]propan-1-amine] | reduced the RPE degeneration extent and intensity, although the protection was partial | statistically significantly reduced | significantly reduced | up to 50% | reduced the RPE degeneration extent and intensity | statistically significantly reduced | reduced | reduced | 0.590 (0.565, 0.616) | 28% | slower rate | 3.5% | 3,000 | inhibited |
